Source: US12723063B2, “GIPR-agonist compounds” (Eli Lilly and Company, priority 2019, dated 2026)
*1 amine or outer side, *2 acyl side, *3 side chain or, on linkers, in order; H or OH if unused. Where a SMILES comes first, the peptide text is derived from it. Side-chain parts run from the residue outwards. [ ]: non-standard residue; d: D form. The star is where a group is joined. C20 diacid = O=C(O)CCCCCCCCCCCCCCCCCCC(=O)*; αMePhe(2-F) = C[C@](N)(Cc1ccccc1F)C(=O)O; γGlu = O=C(O)[C@H](CCC(=O)[*:2])N[*:1]; 4Pal = N[C@@H](Cc1ccncc1)C(=O)O; AEEA = NCCOCCOCC(=O)O; Aib = CC(C)(N)C(=O)O

What was measured:
Assay in all cases: cAMP functional assay (HTRF) in HEK293 cells in presence of 0.1% casein
Type in all cases: cell-based
[1] = target: T1, human glucose-dependent insulinotropic peptide receptor (GIPR) (Homo sapiens, UniProt P48546); details: HEK293 cells expressing human GIPR, geometric mean, read-out: hGIPR cAMP Rel EC50 nM (SEM, n)
T1 construct: expressed in transfected cells; host or cells: HEK293
T1 sequence (P48546 22-466): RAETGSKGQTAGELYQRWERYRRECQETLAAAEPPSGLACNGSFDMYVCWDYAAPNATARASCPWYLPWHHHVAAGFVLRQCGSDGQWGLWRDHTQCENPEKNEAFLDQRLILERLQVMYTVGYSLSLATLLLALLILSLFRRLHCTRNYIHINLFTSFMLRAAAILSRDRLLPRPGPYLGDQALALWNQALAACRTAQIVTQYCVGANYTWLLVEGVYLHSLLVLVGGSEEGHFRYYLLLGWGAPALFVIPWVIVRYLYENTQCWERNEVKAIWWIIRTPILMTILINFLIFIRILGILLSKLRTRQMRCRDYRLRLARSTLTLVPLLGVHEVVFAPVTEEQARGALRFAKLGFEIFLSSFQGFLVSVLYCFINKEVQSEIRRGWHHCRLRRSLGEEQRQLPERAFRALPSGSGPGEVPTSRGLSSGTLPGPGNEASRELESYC

[2] = target: T2, human glucagon receptor (GcgR) (Homo sapiens, UniProt P47871); details: HEK293 cells expressing human GcgR, geometric mean, read-out: hGcgR cAMP Rel EC50 nM (SEM, n)
T2 construct: expressed in transfected cells; host or cells: HEK293
T2 sequence (P47871 26-477): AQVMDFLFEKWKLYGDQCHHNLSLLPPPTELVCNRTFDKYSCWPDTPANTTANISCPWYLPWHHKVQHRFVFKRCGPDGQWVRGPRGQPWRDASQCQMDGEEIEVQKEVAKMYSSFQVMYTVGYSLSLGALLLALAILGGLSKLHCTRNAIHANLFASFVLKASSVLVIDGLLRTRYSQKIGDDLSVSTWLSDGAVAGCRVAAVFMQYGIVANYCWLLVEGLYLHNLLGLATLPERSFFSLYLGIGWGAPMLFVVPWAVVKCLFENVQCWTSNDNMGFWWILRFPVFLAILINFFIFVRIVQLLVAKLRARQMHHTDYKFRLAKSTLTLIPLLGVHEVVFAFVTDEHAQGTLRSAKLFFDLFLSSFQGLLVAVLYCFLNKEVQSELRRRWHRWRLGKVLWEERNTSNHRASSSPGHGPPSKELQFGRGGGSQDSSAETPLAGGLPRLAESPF

[3] = target: T3, human GLP-1 receptor (GLP-1R) (Homo sapiens, UniProt P43220); details: HEK293 cells expressing human GLP-1R, geometric mean, read-out: hGLP1R cAMP Rel EC50 nM (SEM, n)
T3 construct: expressed in transfected cells; host or cells: HEK293
T3 sequence (P43220 24-463): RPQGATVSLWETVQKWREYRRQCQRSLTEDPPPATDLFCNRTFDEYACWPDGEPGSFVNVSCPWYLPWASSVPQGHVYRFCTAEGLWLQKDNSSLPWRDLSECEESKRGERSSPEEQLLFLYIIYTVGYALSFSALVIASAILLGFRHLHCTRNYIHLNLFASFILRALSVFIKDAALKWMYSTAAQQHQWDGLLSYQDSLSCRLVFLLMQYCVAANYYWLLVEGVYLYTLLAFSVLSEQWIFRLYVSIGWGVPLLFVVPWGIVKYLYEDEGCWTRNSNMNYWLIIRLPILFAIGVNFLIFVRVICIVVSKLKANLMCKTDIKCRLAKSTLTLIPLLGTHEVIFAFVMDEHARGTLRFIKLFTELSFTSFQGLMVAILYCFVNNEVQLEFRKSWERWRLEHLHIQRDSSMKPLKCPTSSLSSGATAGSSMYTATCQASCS

SMILES: CC[C@H](C)[C@H](NC(=O)[C@H](CO)NC(=O)[C@H](Cc1ccc(O)cc1)NC(=O)[C@H](CC(=O)O)NC(=O)[C@H](CO)NC(=O)[C@@H](NC(=O)[C@](C)(Cc1ccccc1F)NC(=O)[C@@H](NC(=O)CNC(=O)[C@H](CCC(=O)O)NC(=O)C(C)(C)NC(=O)[C@@H](N)Cc1ccc(O)cc1)[C@@H](C)O)[C@@H](C)CC)C(=O)N[C@@H](C)C(=O)N[C@@H](CC(C)C)C(=O)N[C@@H](CC(=O)O)C(=O)N[C@@H](CCCCN)C(=O)N[C@H](C(=O)N[C@@H](Cc1c[nH]cn1)C(=O)N[C@@H](CCC(N)=O)C(=O)NC(C)(C)C(=O)N[C@@H](CC(=O)O)C(=O)N[C@@H](Cc1ccccc1)C(=O)N[C@H](C(=O)N[C@@H](CCC(=O)O)C(=O)N[C@@H](Cc1ccncc1)C(=O)N[C@@H](CCCCNC(=O)COCCOCCNC(=O)COCCOCCNC(=O)CC[C@H](NC(=O)CCCCCCCCCCCCCCCCCCC(=O)O)C(=O)O)C(=O)N[C@@H](CC(C)C)C(=O)N[C@@H](CCC(=O)O)C(=O)N[C@@H](C)C(=O)NCC(=O)N1CCC[C@H]1C(=O)N[C@@H](CO)C(=O)N[C@@H](CO)C(=O)NCC(=O)N[C@@H](C)C(=O)N1CCC[C@H]1C(=O)N1CCC[C@H]1C(=O)N1CCC[C@H]1C(=O)N[C@@H](CO)C(N)=O)C(C)C)[C@@H](C)CC [Example 113] (H-Y[Aib]EGT[αMePhe(2-F)]ISDYSIALDKIHQ[Aib]DFVE[4Pal]K([AEEA-AEEA-γGlu-C20 diacid])LEAGPSSGAPPPS-NH2)
- EC50 [1]: 0.0142 nM
- EC50 [2]: > 5000 nM
- EC50 [3]: > 5000 nM
